{
  "source": "patent US9751919B2",
  "about": "“Antimicrobial compositions comprising a hyaluronic acid binding peptide and a β-lactam antibiotic” (priority 2012, dated 2017)",
  "key": {"[1]": {"system": "K. oxytoca", "assay": "Checkerboard assay (FIC index)", "format": "cell-based, Klebsiella oxytoca", "settings": "antibiotic combined with PEP35", "protocol": "(§1) The checkerboard assays were carried out as described by Eliopoulos and Moellering (Chapter 9) in Antibiotic in Laboratory Medicine, Lorian Ed. 1996 as well as Bonapace et al. Diagnostic Microbiology and Infectious Diseases 2002; 44:363-366 and Bonapace et al. Diagnostic Microbiology and Infectious Diseases 2000; 38:43-50. In brief, checkerboard assays were performed in 96 well microtitre trays using an 8-by-8 well configuration. […] 96-well custom designed microtitre plates contained 100 ul/well of cation adjusted Mueller-Hinton broth (eg. for Enterobacteriaceae) with or without lysed horse blood (2-5% V/V) [eg. for S. pneumoniae] and were inoculated to achieve a final concentration of approximately 5×10^5 CFU/ml and incubated in ambient air for 24 hours prior to reading. Colony counts were performed periodically to confirm inocula. Quality control was performed every two weeks using a variety of ATCC QC organisms including; S. pneumoniae 49619, S. aureus 29213, E. faecalis 29212, E. coli 25922 and P. aeruginosa 27853. For all antimicrobials as well as PEP35, CLSI criteria was used.\n(§2) The fractional inhibitory concentration index (FIC index) was used to interpret synergy, antagonism or additivity/indifference. FIC index=FIC of drug A+FIC of drug B where:\n(§3) The FIC of drug A and drug B is calculated as follows, FIC drug A=MIC of drug A in combination/MIC of drug A alone and FIC of drug B=MIC of drug B in combination/MIC of drug B alone. Synergy is defined as FIC index ≦0.5, additivity/indifference FIC >0.5-4 and antagonism FIC index >4.\n(§4) Antimicrobials used included PEP35, cefazolin, ceftriaxone, vancomycin, linezolid, tigecycline and daptomycin versus Gram-positive cocci and PEP35, gentamicin, levofloxacin, piperacillin/tazobactam, meropenem and colistin (Polymyxin E) versus Gram-negative bacilli. These agents were obtained as laboratory grade powders from their respective manufacturers. Stock solutions were prepared and dilutions made as described by the Clinical Laboratory Standards Institute (2005 CLSI).\n(§5) Organisms included Gram-positive cocci (2 strains of each): Methicillin-susceptible Staphylococcus aureus (MSSA), community-associated (CA) and healthcare-associated (HA) methicillin-resistant Staphylococcus aureus (MRSA), vancomycin-intermediate Staphylococcus aureus (VISA), vancomycin-resistant Staphylococcus aureus (VRSA), methicillin-resistant Staphylococcus epidermidis (MRSE), Streptococcus pyogenes, Streptococcus agalactiae, Streptococcus pneumoniae, Enterococcus faecalis, Enterococcus faecium and vancomycin-resistant enterococcus (VRE). Gram-negative bacilli tested (2 strains of each) included: E. coli, Pseudomonas aeruginosa, Klebsiella pneumoniae, K. oxytoca, Enterobacter cloacae, P. mirabilis and Stenotrophomonas maltophilia. MIC testing, following two subcultures from frozen stock were determined by the CLSI 2005 approved broth microdilution method."}, "[2]": {"system": "P. aeruginosa", "assay": "Checkerboard assay (FIC index)", "format": "cell-based, Pseudomonas aeruginosa", "settings": "antibiotic combined with PEP35", "protocol": "as §1, §2, §3, §4, §5"}, "[3]": {"system": "E. coli", "assay": "Checkerboard assay (FIC index)", "format": "cell-based, Escherichia coli", "settings": "antibiotic combined with PEP35", "protocol": "Checkerboard assays were carried out as described by Bonapace et al.\nas §1, with “Diagnostic” for “The checkerboard assays were carried out as described by Eliopoulos and Moellering (Chapter 9) in Antibiotic in Laboratory Medicine, Lorian Ed. 1996 as well as Bonapace et al. Diagnostic”, “2002; 44:363-366.” for “2002; 44:363-366 and Bonapace et al. Diagnostic Microbiology and Infectious Diseases 2000; 38:43-50.”, “27853. […] All peptides were assessed for synergy with β-lactams and vancomycin.” for “27853.”, “as the peptides,” for “as PEP35,”, “criteria were” for “criteria was”\nas §2\nas §3, with “was” for “is”, “additivity/indifference defined as a” for “additivity/indifference”, “between 0.5 and 4” for “>0.5-4”, “antagonism defined as an” for “antagonism”\nas §1, §3, §4\nOrganisms included Gram-positive cocci (2 strains of each): Methicillin-susceptible Staphylococcus aureus (MSSA), community-associated (CA) and healthcare-associated (HA) methicillin-resistant Staphylococcus aureus (MRSA), vancomycin-intermediate Staphylococcus aureus (VISA), vancomycin-resistant Staphylococcus aureus (VRSA), methicillin-resistant Staphylococcus epidermidis (MRSE), Streptococcus pyogenes, Streptococcus agalactiae, Streptococcus pneumoniae, Enterococcus faecalis, Enterococcus faecium and vancomycin-resistant enterococcus (VRE). […]"}, "[4]": {"system": "S. maltophilia", "assay": "Checkerboard assay (FIC index)", "format": "cell-based, Stenotrophomonas maltophilia", "settings": "antibiotic combined with PEP35", "protocol": "as §1, §2, §3, §4, §5"}, "[5]": {"system": "K. pneumoniae", "assay": "Checkerboard assay (FIC index)", "format": "cell-based, Klebsiella pneumoniae", "settings": "antibiotic combined with PEP35", "protocol": "as §1, §2, §3, §4, §5"}, "[6]": {"system": "P. mirabilis", "assay": "Checkerboard assay (FIC index)", "format": "cell-based, Proteus mirabilis", "settings": "antibiotic combined with PEP35", "protocol": "as §1, §2, §3, §4, §5"}, "[7]": {"system": "E. cloacae", "assay": "Checkerboard assay (FIC index)", "format": "cell-based, Enterobacter cloacae", "settings": "antibiotic combined with PEP35", "protocol": "as §1, §2, §3, §4, §5"}, "[8]": {"system": "E. coli", "assay": "MIC (CLSI broth dilution), agent alone", "format": "cell-based, Escherichia coli", "protocol": "(§6) VISA (strains 92, 95 and 96), VRSA (strains 105 and 106) and E. coli (strain 69717) isolates were also tested. One MSSA was used as a control. All MICs were assessed using CLSI guidelines. Also assessed was the activity of cefazolin, ceftriazone, meropenem, and a piperacillin/tazobactam combination antibiotic. Minimum inhibitory concentration (MIC) is the lowest concentration of an antimicrobial that will inhibit the visible growth of a microorganism after incubation.\n(§7) Antimicrobial Susceptibility Testing: A custom designed panel of antimicrobials was created. The panel included: PEP35, penicillin, piperacillin/tazobactam, cefazolin, ceftriaxone, meropenem, clarithromycin, clindamycin, gentamicin, amikacin, vancomycin, ciprofloxacin, levofloxacin, moxifloxacin, linezolid, trimethoprim/sulfamethoxazole and doxycycline. These agents were obtained as laboratory grade powders from their respective manufacturers. Stock solutions were prepared and dilutions made as described by the Clinical Laboratory Standards Institute (2005 CLSI). Following two subcultures from frozen stock the MICs of the antimicrobial agents for the isolates were determined by the CLSI 2005 approved broth macrodilution method. Briefly, test tubes containing doubling antibiotic dilutions (2 ml per tube) of cation adjusted Mueller-Hinton broth (eg. for Enterobacteriaceae) with or without lysed horse blood (2-5% V/V) [eg. for S. pneumoniae] were inoculated to achieve a final concentration of approximately 5×10^5 CFU/ml and incubated in ambient air for 24 hours prior to reading. Colony counts were performed periodically to confirm inocula. Quality control was performed every two weeks using a variety of ATCC QC organisms including; S. aureus 29213, E. faecalis 29212, E. coli 25922 and P. aeruginosa 27853. For all antimicrobials as well as PEP35, CLSI criteria were used.\n(§8) One MS SA and ATCC reference strains were used as controls. All MICs were assessed using CLSI guidelines."}, "[9]": {"system": "CA-MRSA", "assay": "MIC (CLSI broth dilution), agent alone", "format": "cell-based, Staphylococcus aureus", "settings": "for MIC: Staphylococcus aureus", "protocol": "as §6\nas §7, with “The panel included: PEP35, penicillin, piperacillin/tazobactam, cefazolin, ceftriaxone, meropenem, clarithromycin, clindamycin, gentamicin, amikacin, vancomycin, ciprofloxacin, levofloxacin, moxifloxacin, linezolid, trimethoprim/sulfamethoxazole and doxycycline.” left out, “27853.” for “27853. For all antimicrobials as well as PEP35, CLSI criteria were used.”\n(§9) One MSSA was used as a control. All MICs were assessed using CLSI guidelines.\nas §8"}, "[10]": {"system": "HA-MRSA", "assay": "MIC (CLSI broth dilution), agent alone", "format": "cell-based, Staphylococcus aureus", "protocol": "as §6\nas §7, with “The panel included: PEP35, penicillin, piperacillin/tazobactam, cefazolin, ceftriaxone, meropenem, clarithromycin, clindamycin, gentamicin, amikacin, vancomycin, ciprofloxacin, levofloxacin, moxifloxacin, linezolid, trimethoprim/sulfamethoxazole and doxycycline.” left out, “27853.” for “27853. For all antimicrobials as well as PEP35, CLSI criteria were used.”\nas §9, §8"}, "[11]": {"system": "MSSA", "assay": "MIC (CLSI broth dilution), agent alone", "format": "cell-based, Staphylococcus aureus", "settings": "for MIC: S. aureus control, agent alone", "protocol": "as §6\nas §7, with “The panel included: PEP35, penicillin, piperacillin/tazobactam, cefazolin, ceftriaxone, meropenem, clarithromycin, clindamycin, gentamicin, amikacin, vancomycin, ciprofloxacin, levofloxacin, moxifloxacin, linezolid, trimethoprim/sulfamethoxazole and doxycycline.” left out, “27853.” for “27853. For all antimicrobials as well as PEP35, CLSI criteria were used.”\nas §9, §8"}},
  "note": "Values joined by “and” are separate entries in the source; they are usually repeats but may differ in a detail not shown here. Equal entries are not always repeated. Where two headings read alike, the source gives them in different places. Marks after values point to notes of the source that are not given here.",
  "data": [
    {"molecule": "gentamicin", "values": [
      {"measurement": "Avg ΣFIC (range)", "setting": "[1]; K. oxytoca 75316", "result": "1.24 (0.75-2.12)"},
      {"measurement": "Avg ΣFIC (range)", "setting": "[1]; K. oxytoca 76874", "result": "1.10 (0.75-2.06)"},
      {"measurement": "Avg ΣFIC (range)", "setting": "[2]; P. aeruginosa 70849", "result": "1.11 (1.03-1.25)"},
      {"measurement": "Avg ΣFIC (range)", "setting": "[2]; P. aeruginosa 71841", "result": "1.05 (0.75-1.25)"},
      {"measurement": "Avg ΣFIC (range)", "setting": "[3]; E. coli 69716", "result": "1.4 (1.06-2.12)"},
      {"measurement": "Avg ΣFIC (range)", "setting": "[3]; E. coli 70752", "result": "1.05 (0.75-1.25)"},
      {"measurement": "Avg ΣFIC (range)", "setting": "[4]; S. maltophilia 73062", "result": "1.4 (0.62-2.25)"},
      {"measurement": "Avg ΣFIC (range)", "setting": "[4]; S. maltophilia 77424", "result": "1.99 (1.0-4.25) and 1.98 (1.06-4.25)"},
      {"measurement": "Avg ΣFIC (range)", "setting": "[5]; K. pneumoniae 70508", "result": "1.13 (1.0-1.25)"},
      {"measurement": "Avg ΣFIC (range)", "setting": "[5]; K. pneumoniae 77081", "result": "0.89 (0.56-1.25)"},
      {"measurement": "Avg ΣFIC (range)", "setting": "[6]; P. mirabilis 80267", "result": ">1*"},
      {"measurement": "Avg ΣFIC (range)", "setting": "[6]; P. mirabilis 81569", "result": ">1*"},
      {"measurement": "Avg ΣFIC (range)", "setting": "[7]; E. cloacae 80194", "result": "1.4 (0.5-2.12)"},
      {"measurement": "Avg ΣFIC (range)", "setting": "[7]; E. cloacae 83128", "result": "1.05 (0.75-1.25)"}
    ]},
    {"molecule": "CC1=C(C(=O)O)N2C(=O)[C@@H](NC(=O)[C@H](N)c3ccccc3)[C@H]2SC1", "note": "[Cephalexin]", "values": [
      {"measurement": "Cephalexin (MIC)", "setting": "[8]; E. coli, antibiotic alone, two values in cell", "result": "8/8"},
      {"measurement": "MIC", "setting": "[8]; Escherichia coli, E. coli control, agent alone, read-out: MIC", "result": 8, "unit": "µg/mL"},
      {"measurement": "MICs alone, range", "setting": "[9]; 50 CA-MRSA strains", "result": "64 to 512", "unit": "µg/mL"},
      {"measurement": "strains resistant to the antibiotic", "setting": "[9]; 50 CA-MRSA strains", "result": "50 of the 50 strains"},
      {"measurement": "MIC", "setting": "[9]; MRSA / USA300", "result": 128, "unit": "µg/mL"},
      {"measurement": "MIC", "setting": "[9]; MRSA / USA400", "result": 128, "unit": "µg/mL"},
      {"measurement": "MIC", "setting": "[9]; MRSA / USA400, CA-MRSA (CMRSA7/USA400/MW2) isolates, one per table line, agent alone, read-out: MIC", "result": 512, "unit": "µg/mL"},
      {"measurement": "MICs alone, range", "setting": "[10]; 50 HA-MRSA strains", "result": "128 to 512", "unit": "µg/mL"},
      {"measurement": "strains resistant to the antibiotic", "setting": "[10]; 50 HA-MRSA strains", "result": "50 of the 50 strains"},
      {"measurement": "MIC", "setting": "[10]; Staphylococcus aureus, MRSA / USA200, read-out: Cephalexin (MIC), HA-MRSA (CMRSA4/USA200), antibiotic alone", "result": 512, "unit": "µg/mL"},
      {"measurement": "Cephalexin (MIC)", "setting": "[11]; S. aureus (control row), antibiotic alone, two values in cell", "result": "4/4"},
      {"measurement": "MIC", "setting": "[11]", "result": 8, "unit": "µg/mL"},
      {"measurement": "MIC", "setting": "[11]; Staphylococcus aureus, MSSA, read-out: MIC", "result": 4, "unit": "µg/mL"}
    ]}
  ]
}
